Test results reported in patent US8916593B2, “Alkoxy-substituted 2-aminopyridines as ALK inhibitors” (Pfizer Inc., priority 2010, dated 2014).

Assays:
[1] = target: T1, human recombinant wild-type ALK kinase domain (amino acids 1093-1411) (Homo sapiens, UniProt Q9UM73); experiment: ALK enzyme assay 2 (microfluidic mobility shift assay); assay type: biochemical;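 also: kinase reaction run 1 h at room temperature, conversion quantified by electrophoretic separation of fluorescent peptide substrate from phosphorylated product, about 15-20% turnover without inhibitor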
T1 construct: ALK kinase domain (amino acids 1093-1411); made in house
Description: The reactions were incubated for 1 h at room temperature, stopped by the addition of 0.1 M EDTA, pH 8, and the extent of reactions (˜15-20% conversion with no inhibitor) was determined after electrophoretic separation of the fluorescently labeled peptide substrate and phosphorylated product on an LabChip EZ Reader II (Caliper Life Sciences, Hopkinton, Mass.).

[2] = target: EML4-ALK wt v1 in NIH-3T3 cells (Homo sapiens, UniProt Q9UM73)
Chain of EML4-ALK wt v1 in NIH-3T3 cells (Q9UM73 with tags, fused parts or gaps): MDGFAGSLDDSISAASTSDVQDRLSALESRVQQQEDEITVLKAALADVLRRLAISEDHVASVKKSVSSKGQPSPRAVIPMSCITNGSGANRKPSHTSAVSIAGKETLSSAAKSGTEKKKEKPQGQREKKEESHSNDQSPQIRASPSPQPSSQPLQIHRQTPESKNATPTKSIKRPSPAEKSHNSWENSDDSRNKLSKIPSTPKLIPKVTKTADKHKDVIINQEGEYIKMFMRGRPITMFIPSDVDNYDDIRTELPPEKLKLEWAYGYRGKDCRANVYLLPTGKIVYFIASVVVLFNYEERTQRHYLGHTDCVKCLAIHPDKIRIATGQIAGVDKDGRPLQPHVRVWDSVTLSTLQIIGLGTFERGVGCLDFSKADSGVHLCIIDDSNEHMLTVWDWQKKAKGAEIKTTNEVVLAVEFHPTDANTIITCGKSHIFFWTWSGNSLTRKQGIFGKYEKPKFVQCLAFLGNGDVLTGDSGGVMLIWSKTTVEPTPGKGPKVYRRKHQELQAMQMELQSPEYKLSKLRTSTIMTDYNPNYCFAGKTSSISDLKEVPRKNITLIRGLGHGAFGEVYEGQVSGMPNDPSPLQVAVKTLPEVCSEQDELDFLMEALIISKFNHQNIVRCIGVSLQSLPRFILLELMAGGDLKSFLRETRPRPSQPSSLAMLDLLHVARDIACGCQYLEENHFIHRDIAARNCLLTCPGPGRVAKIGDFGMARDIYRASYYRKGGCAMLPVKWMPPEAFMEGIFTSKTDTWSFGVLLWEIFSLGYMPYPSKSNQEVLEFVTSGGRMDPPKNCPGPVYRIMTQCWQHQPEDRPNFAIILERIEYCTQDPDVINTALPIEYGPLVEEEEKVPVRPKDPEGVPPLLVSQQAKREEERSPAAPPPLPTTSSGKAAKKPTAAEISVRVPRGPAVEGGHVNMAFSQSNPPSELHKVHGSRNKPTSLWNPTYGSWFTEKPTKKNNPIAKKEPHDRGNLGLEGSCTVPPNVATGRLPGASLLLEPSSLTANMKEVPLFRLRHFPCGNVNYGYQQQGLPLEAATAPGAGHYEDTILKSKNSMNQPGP

T1 sequence (Q9UM73 1093-1411): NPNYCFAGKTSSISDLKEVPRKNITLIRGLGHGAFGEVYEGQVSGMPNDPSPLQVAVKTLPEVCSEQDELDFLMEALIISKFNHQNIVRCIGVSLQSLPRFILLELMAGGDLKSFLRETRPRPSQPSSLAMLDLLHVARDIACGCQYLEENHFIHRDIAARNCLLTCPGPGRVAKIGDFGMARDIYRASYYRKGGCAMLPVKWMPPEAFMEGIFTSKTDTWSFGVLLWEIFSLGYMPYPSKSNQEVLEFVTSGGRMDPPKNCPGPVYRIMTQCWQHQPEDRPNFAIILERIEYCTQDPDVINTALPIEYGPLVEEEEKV

| Compound | Ki [1] [nM] | IC50 [2] [nM] |
| --- | --- | --- |
| COc1ccc(F)cc1C(C)Oc1cc(-c2sc(CO)nc2C)cnc1N (stereo not drawn) [Example 137, (5-{6-amino-5-[1-(5-fluoro-2-methoxyphenyl)ethoxy]pyridin-3-yl}-4-methyl-1,3-thiazol-2-yl)methanol] | 0.398 | 2.59 |
| C[C@@H](Oc1cc(-c2cnn([C@H]3CCCNC3)c2)cnc1N)c1cc(F)ccc1-n1nccn1 [Example 98, 3-{(1R)-1-[5-fluoro-2-(2H-1,2,3-triazol-2-yl)phenyl]ethoxy}-5-[1-(piperidin-3-yl)-1H-pyrazol-4-yl]pyridin-2-amine] | < 0.2 | 10.8 |
| C[C@@H](Oc1cc(-c2cnn(C3CCNC3)c2)cnc1N)c1cc(F)ccc1-n1nccn1 (stereo partly drawn) [Example 81, 3-{(1R)-1-[5-fluoro-2-(2H-1,2,3-triazol-2-yl)phenyl]ethoxy}-5-[1-(pyrrolidin-3-yl)-1H-pyrazol-4-yl]pyridin-2-amine] | < 0.2 | 9.9 |
| C[C@@H](Oc1cc(-c2cnn([C@@H]3C[C@H]4CC[C@@H](C3)N4)c2C#N)cnc1N)c1cc(F)ccc1-n1nccn1 [Example 141, 4-(6-amino-5-{(1R)-1-[5-fluoro-2-(2H-1,2,3-triazol-2-yl)phenyl]ethoxy}pyridin-3-yl)-1-[(3-exo)-8-azabicyclo[3.2.1]oct-3-yl]-1H-pyrazole-5-carbonitrile] | < 0.2 | 3.5 |
| CC(Oc1cc(-c2ccnn2C)cnc1N)c1cc(F)ccc1-c1nccn1C (stereo not drawn) [Example 63, 3-{1-[5-Fluoro-2-(1-methyl-1H-imidazol-2-yl)-phenyl]ethoxy}-5-(2-methyl-2H-pyrazol-3-yl)-pyridin-2-ylamine] | 67 | 2350 |
| C[C@@H](Oc1cc(-c2ccc(OC3CCNCC3)nc2)cnc1N)c1cc(F)ccc1-n1nccn1 [Example 122, 5-{(1R)-1-[5-fluoro-2-(2H-1,2,3-triazol-2-yl)phenyl]ethoxy}-6′-(piperidin-4-yloxy)-3,3′-bipyridin-6-amine] | < 0.2 | 1.15 |
| Cc1nc(C(C)(C)O)sc1-c1cnc(N)c(O[C@H](C)c2cc(F)ccc2-n2nccn2)n1 [Example 103, 2-[5-(5-amino-6-{(1R)-1-[5-fluoro-2-(2H-1,2,3-triazol-2-yl)phenyl]ethoxy}pyrazin-2-yl)-4-methyl-1,3-thiazol-2-yl]propan-2-ol] | < 0.2 | 15 |
| C[C@@H](Oc1cc(-c2c[nH]nc2C#N)cnc1N)c1cc(F)ccc1-n1nccn1 [Example 116, 4-(6-amino-5-{(1R)-1-[5-fluoro-2-(2H-1,2,3-triazol-2-yl)phenyl]ethoxy}pyridin-3-yl)-1H-pyrazole-3-carbonitrile] | < 0.2 | 4.17 |
| CC(O)c1ncc(-c2cnc(N)c(O[C@H](C)c3cc(F)ccc3-n3nccn3)c2)s1 (stereo partly drawn) [Example 94, 1-[5-(6-amino-5-{(1R)-1-[5-fluoro-2-(2H-1,2,3-triazol-2-yl)phenyl]ethoxy}pyridin-3-yl)-1,3-thiazol-2-yl]ethanol] | < 0.49 | 22.1 |
| Cc1nc(-c2cnc(N)c(O[C@H](C)c3cc(F)ccc3-n3nccn3)c2)sc1C(C)O (stereo partly drawn) [Example 115, 1-[2-(6-amino-5-{(1R)-1-[5-fluoro-2-(2H-1,2,3-triazol-2-yl)phenyl]ethoxy}pyridin-3-yl)-4-methyl-1,3-thiazol-5-yl]ethanol] | 4.37 | 289 |
| CC(C)n1cc(-c2cnc(N)c(O[C@H](C)c3cc(F)ccc3-n3nccn3)c2)cn1 [Example 76, 3-{(1R)-1-[5-fluoro-2-(2H-1,2,3-triazol-2-yl)phenyl]ethoxy}-5-[1-(propan-2-yl)-1H-pyrazol-4-yl]pyridin-2-amine] | 0.216 | 25.5 |
| C[C@@H](Oc1cc(-c2ccnc(F)c2F)cnc1N)c1cc(F)ccc1-n1nccn1 [Example 129, 2′,3′-difluoro-5-{(1R)-1-[5-fluoro-2-(2H-1,2,3-triazol-2-yl)phenyl]ethoxy}-3,4′-bipyridin-6-amine] | 5.5 | 223 |
| Cc1nn(CC#N)c(C)c1-c1cnc(N)c(O[C@H](C)c2cc(F)ccc2-n2nccn2)c1 [Example 84, [4-(6-amino-5-{(1R)-1-[5-fluoro-2-(2H-1,2,3-triazol-2-yl)phenyl]ethoxy}pyridin-3-yl)-3,5-dimethyl-1H-pyrazol-1-yl]acetonitrile] | < 0.2 | 13.2 |
| CNCc1ccc(-c2cnc(N)c(O[C@H](C)c3cc(F)ccc3-n3nccn3)c2)c(OC)n1 [Example 100, 5-{(1R)-1-[5-fluoro-2-(2H-1,2,3-triazol-2-yl)phenyl]ethoxy}-2′-methoxy-6′-[(methylamino)methyl]-3,3′-bipyridin-6-amine] | < 0.2 | 12.2 |
| Cc1nc(C#N)c(-c2cnc(N)c(O[C@H](C)c3cc(F)ccc3-n3nccn3)c2)o1 [Example 120, 5-(6-amino-5-{(1R)-1-[5-fluoro-2-(2H-1,2,3-triazol-2-yl)phenyl]ethoxy}pyridin-3-yl)-2-methyl-1,3-oxazole-4-carbonitrile] | 2.14 | 161 |
| C[C@@H](Oc1nc(-c2ccc(C(N)=O)nc2)cnc1N)c1cc(F)ccc1-n1nccn1 [Example 64, 5-(5-amino-6-{(1R)-1-[5-fluoro-2-(2H-1,2,3-triazol-2-yl)phenyl]ethoxy}pyrazin-2-yl)pyridine-2-carboxamide] | 2.4 | 123 |
| CC1CNc2ncc(-c3cnc(N)c(O[C@H](C)c4cc(F)ccc4-n4nccn4)c3)cc2O1 (stereo partly drawn) [Example 79, 3-{(1R)-1-[5-fluoro-2-(2H-1,2,3-triazol-2-yl)phenyl]ethoxy}-5-(2-methyl-3,4-dihydro-2H-pyrido[3,2-b][1,4]oxazin-7-yl)pyridin-2-amine] | < 0.2 | 15.5 |

Results, then the molecule that gave them:

| Ki [1] [nM] | IC50 [2] [nM] | Compound |
| --- | --- | --- |
| 0.26 | 9.29 | COc1cc(C(N)=O)ccc1-c1cnc(N)c(O[C@H](C)c2cc(F)ccc2-n2nccn2)c1 [Example 118, 4-(6-amino-5-{(1R)-1-[5-fluoro-2-(2H-1,2,3-triazol-2-yl)phenyl]ethoxy}pyridin-3-yl)-3-methoxybenzamide] |
| < 0.2 | 4.39 | C[C@@H](Oc1cc(-c2ccc(CO)c(S(C)(=O)=O)c2)cnc1N)c1cc(F)ccc1-n1nccn1 [Example 119, [4-(6-amino-5-{(1R)-1-[5-fluoro-2-(2H-1,2,3-triazol-2-yl)phenyl]ethoxy}pyridin-3-yl)-2-(methylsulfonyl)phenyl]methanol] |
| 0.47 | 34.4 | C[C@@H](Oc1cc(-c2ccc3c(c2)S(=O)(=O)CC3O)cnc1N)c1cc(F)ccc1-n1nccn1 (stereo partly drawn) [Example 110, 6-(6-amino-5-{(1R)-1-[5-fluoro-2-(2H-1,2,3-triazol-2-yl)pheny]ethoxy}pyridin-3-yl)-2,3-dihydro-1-benzothiophene-3-ol 1,1-dioxide] |
| < 0.2 | 0.622 | C[C@@H](Oc1cc(-c2ccc(C(C)(C)O)c(S(C)(=O)=O)c2)cnc1N)c1cc(F)ccc1-n1nccn1 [Example 111, 2-[4-(6-amino-5-{(1R)-1-[5-fluoro-2-(2H-1,2,3-triazol-2-yl)phenyl]ethoxy}pyridin-3-yl)-2-(methylsulfonyl)phenyl]propan-2-ol] |
| 0.2 | 15.3 | CC(O)Cn1cc(-c2cnc(N)c(O[C@H](C)c3cc(F)ccc3-n3nccn3)c2)cn1 (stereo partly drawn) [Example 77, 1-[4-(6-amino-5-{(1R)-1-[5-fluoro-2-(2H-1,2,3-triazol-2-yl)phenyl]ethoxy}pyridin-3-yl)-1H-pyrazol-1-yl]propan-2-ol] |
| 1.1 | 13.2 | C[C@@H](Oc1cc(-c2ccc3c(c2)CCS3(=O)=O)cnc1N)c1cc(F)ccc1-n1nccn1 [Example 99, 5-(1,1-dioxido-2,3-dihydro-1-benzothiophen-5-yl)-3-{(1R)-1-[5-fluoro-2-(2H-1,2,3-triazol-2-yl)phenyl]ethoxy}pyridin-2-amine] |
| < 0.2 | 3.75 | CNS(=O)(=O)c1cc(-c2cnc(N)c(O[C@H](C)c3cc(F)ccc3-n3nccn3)c2)ccc1OC [Example 142, 5-(6-amino-5-{(1R)-1-[5-fluoro-2-(2H-1,2,3-triazol-2-yl)phenyl]ethoxy}pyridin-3-yl)-2-methoxy-N-methylbenzenesulfonamide] |
| 0.26 | 8.6 | COc1ccc(F)cc1C(C)Oc1cc(-c2ccc(CO)c(S(C)(=O)=O)c2)cnc1N (stereo not drawn) [Example 136, [4-{6-amino-5-[1-(5-fluoro-2-methoxyphenyl)ethoxy]pyridin-3-yl}-2-(methylsulfonyl)phenyl]methanol] |
| 7.2 | 729 | CNC(=O)c1ncc(-c2cnc(N)c(O[C@H](C)c3cc(F)ccc3-n3nccn3)c2)cn1 [Example 92, 5-(6-amino-5-{(1R)-1-[5-fluoro-2-(2H-1,2,3-triazol-2-yl)phenyl]ethoxy}pyridin-3-yl)-N-methylpyrimidine-2-carboxamide] |
| < 0.2 | 3.21 | COc1ccc(S(C)(=O)=O)cc1-c1cnc(N)c(O[C@H](C)c2cc(F)ccc2-n2nccn2)c1 [Example 101, 3-{(1R)-1-[5-fluoro-2-(2H-1,2,3-triazol-2-yl)phenyl]ethoxy}-5-[2-methoxy-5-(methylsulfonyl)phenyl] pyridin-2-amine] |
| 0.22 | 43.6 | C[C@@H](Oc1cc(-c2ccc3c(c2)CNC3=O)cnc1N)c1cc(F)ccc1-n1nccn1 [Example 89, 5-(6-amino-5-{(1R)-1-[5-fluoro-2-(2H-1,2,3-triazol-2-yl)phenyl]ethoxy}pyridin-3-yl)-2,3-dihydro-1H-isoindol-1-one] |
| 0.2 | 13.8 | Cc1nn(CS(C)(=O)=O)c(C)c1-c1cnc(N)c(O[C@H](C)c2cc(F)ccc2-n2nccn2)c1 [Example 95, 5-{3,5-dimethyl-1-[(methylsulfonyl)methyl]-1H-pyrazol-4-yl}-3-{(1R)-1-[5-fluoro-2-(2H-1,2,3-triazol-2-yl)phenyl]ethoxy}pyridin-2-amine] |
| < 0.2 | 9.92 | Cc1nc(CO)sc1-c1cnc(N)c(O[C@H](C)c2cc(F)ccc2-n2nccn2)c1 [Example 107, [5-(6-amino-5-{(1R)-1-[5-fluoro-2-(2H-1,2,3-triazol-2-yl)phenyl]ethoxy}pyridin-3-yl)-4-methyl-1,3-thiazol-2-yl]methanol] |
